Data reported in BindingDB's records for doi:10.1124/jpet.300.3.1122 (Sanofi-Synthelabo Recherche, 2002).

How the values were obtained:
[1] = target: T1, Oxytocin receptor (Rattus norvegicus, UniProt P70536)
T1 sequence (P70536 whole entry): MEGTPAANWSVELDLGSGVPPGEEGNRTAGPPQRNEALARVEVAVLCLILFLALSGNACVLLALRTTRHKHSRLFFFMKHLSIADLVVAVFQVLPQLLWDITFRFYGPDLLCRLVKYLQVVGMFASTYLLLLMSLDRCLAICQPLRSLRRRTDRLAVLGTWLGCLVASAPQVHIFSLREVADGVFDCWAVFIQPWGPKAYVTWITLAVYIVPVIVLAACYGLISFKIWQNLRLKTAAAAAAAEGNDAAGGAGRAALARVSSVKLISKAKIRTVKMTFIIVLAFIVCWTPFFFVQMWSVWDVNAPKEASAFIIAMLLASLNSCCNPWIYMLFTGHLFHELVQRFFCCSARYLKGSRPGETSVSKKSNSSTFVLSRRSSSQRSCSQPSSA

[2] = target: Vasopressin V1a receptor (Rattus norvegicus, UniProt P30560)
[3] = target: T2, Vasopressin V1b receptor (Bos taurus, UniProt F1ME85)
T2 sequence (F1ME85 whole entry): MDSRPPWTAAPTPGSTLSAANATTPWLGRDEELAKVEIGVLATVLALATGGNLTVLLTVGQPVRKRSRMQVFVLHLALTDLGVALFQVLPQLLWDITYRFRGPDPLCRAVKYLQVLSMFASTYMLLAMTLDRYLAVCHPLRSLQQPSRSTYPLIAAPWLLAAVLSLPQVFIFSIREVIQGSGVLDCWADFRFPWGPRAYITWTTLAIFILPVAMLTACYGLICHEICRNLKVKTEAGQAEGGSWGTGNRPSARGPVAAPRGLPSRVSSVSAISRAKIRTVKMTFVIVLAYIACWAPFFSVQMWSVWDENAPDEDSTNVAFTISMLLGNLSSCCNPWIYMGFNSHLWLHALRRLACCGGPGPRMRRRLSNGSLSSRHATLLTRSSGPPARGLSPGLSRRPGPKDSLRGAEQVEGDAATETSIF

[4] = target: Vasopressin V2 receptor (Rattus norvegicus, UniProt Q00788)
Chain of Vasopressin V2 receptor (Q00788 whole entry): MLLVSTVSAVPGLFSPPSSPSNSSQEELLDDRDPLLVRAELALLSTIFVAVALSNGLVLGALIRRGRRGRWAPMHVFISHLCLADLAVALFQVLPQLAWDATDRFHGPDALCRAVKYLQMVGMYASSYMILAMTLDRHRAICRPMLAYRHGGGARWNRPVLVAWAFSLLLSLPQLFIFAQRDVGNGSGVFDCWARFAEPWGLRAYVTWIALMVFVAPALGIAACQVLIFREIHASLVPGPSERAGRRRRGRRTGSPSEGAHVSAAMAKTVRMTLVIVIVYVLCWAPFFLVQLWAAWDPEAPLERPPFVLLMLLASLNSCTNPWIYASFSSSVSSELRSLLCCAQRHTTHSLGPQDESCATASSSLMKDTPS

Chain of Vasopressin V1a receptor (P30560 whole entry): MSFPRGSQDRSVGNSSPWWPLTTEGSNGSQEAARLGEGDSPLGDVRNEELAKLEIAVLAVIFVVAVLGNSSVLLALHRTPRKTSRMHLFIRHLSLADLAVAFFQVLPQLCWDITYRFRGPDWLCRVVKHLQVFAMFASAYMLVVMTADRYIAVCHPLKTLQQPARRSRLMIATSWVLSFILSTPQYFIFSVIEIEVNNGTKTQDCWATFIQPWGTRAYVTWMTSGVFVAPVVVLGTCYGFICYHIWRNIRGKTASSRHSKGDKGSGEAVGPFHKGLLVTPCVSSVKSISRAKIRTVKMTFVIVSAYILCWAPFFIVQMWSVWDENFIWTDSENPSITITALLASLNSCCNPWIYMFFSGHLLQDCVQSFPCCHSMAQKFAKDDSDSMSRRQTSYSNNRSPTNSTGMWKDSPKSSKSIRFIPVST

Q: With COc1ccc(S(=O)(=O)N2C(=O)[C@@](c3ccccc3OC)(N3C[C@H](O)C[C@H]3C(=O)N(C)C)c3cc(Cl)ccc32)c(OC)c1 [SSR149415] as the compound, how does the Ki [1] read?
A: 270 nM

Q: And the Ki [2]?
A: 1050 nM

Q: What about the Ki [3] of the same compound?
A: 2.7 nM

Q: And the Ki [4]?
A: 2900 nM
